Reference: patent publication US20120046317A1, “NOVEL HETEROCYCLIC COMPOUNDS” (priority 2009, published 2012)
Read-outs that look alike come from different tables or passages of the source. Blank lines part the entries; values can stand above or below the compound they belong to.

Assays:
[1] = test system: patients; details: phase 2 clinical studies; particularly in more severely affected patients; cited from earlier work
[2] = in vivo; details: male, Wistar, rat, po, 10 mg/kg
Description: (§1) Summary of Oral Pharmacokinetics of Reference Compound-T and Compound No. 100 in Wistar Rat:
(§2) Single dose pharmacokinetics of Reference compound-T (3-((2-(methylsulfonyl)hydrazino)carbonyl)-1-(2-oxo-2-thienylethyl)pyridinium chloride) and compound no. 100 was studied in male Wistar rat (280-300 gm, n=5) after oral administration at a dose of 10 mg/kg. Blood samples were obtained serially from jugular vein cannulated animals at selected time points and concentration of Reference compound-T and compound no. 100 in plasma was determined by LC-MS/MS. Non-compartmental pharmacokinetic analysis was performed using WinNonlin 5.2. […] 100.

[3] = rat, in vivo, po, 10 mg/kg
Description: as §1, §2

[4] = in vivo; details: male, dog, po, 15 mg/kg
Description: (§3) Non-compartmental pharmacokinetic analysis was performed using WinNonlin 5.2.

[5] = male, dog, in vivo, po, 15 mg/kg
Description: as §3

[6] = test system: AGE-BSA Formation (Bovine Serum Albumin incubated with ribose); test: In vitro prevention of advanced glycation endproducts (AGEs) accumulation: BSA incubated with ribose, fluorescence; details: Conc. 1 mM, one week
Description: A reduction in fluorescence intensity in the presence of the test compound is an indication of its ability to prevent accumulation of advanced glycation endproducts.
Bovine Serum Albumin was incubated with ribose alone as well as with ribose and different concentrations of the following compounds under aseptic conditions for one week. At the end of the incubation period fluorescence intensity of the samples was measured at excitation and emission wavelengths of 355 nm and 460 nm respectively.

[7] = test system: AGE-LDL formation (Low density lipoprotein incubated with CuCl2); test: In vitro inhibition of AGE-LDL formation: LDL incubated with CuCl2, MDA-lysine adduct fluorescence; type: biochemical; details: Conc. 250 uM; LDL with CuCl2 at 37° C.
Description: In vitro Inhibition of AGE-LDL Formation:
Low density lipoprotein (LDL) was incubated with CuCl2 at 37° C. in phosphate buffered saline in the presence and absence of the following compounds. […] Results were expressed as % MDA-lysine adducts accumulation, considering the extent of the same formed upon incubation with CuCl2 alone as 100%.

[8] = Single dose oral pharmacokinetics of Reference compound-T and compound no. 100 in Wistar rat; details: male Wistar rat, 10 mg/kg
Description: as §1, §2

[9] = Single dose oral pharmacokinetics of Reference compound-T and compound no. 100 in dog; details: male dog, 15 mg/kg, administered compound in plasma, mean
Description: as §3

[10] = test system: diabetic spontaneously hypertensive rats; details: cited from earlier work
[11] = test system: Ob-ZSF1 animal model; details: cited from earlier work
[12] = administered compound in plasma, mean

Compound: Cc1sc[n+](CC(=O)c2ccccc2)c1C [Alagebrium]
Effect on cardiac function and systolic blood pressure [1]: effective in improving cardiac function and uncontrolled systolic blood pressure

AUC(0-t) [2]: 1410 ng·h/mL
Cmax [2]: 1350 ng/mL
Absorption [3]: absorbed rapidly
AUC(0-t) [4]: 1780 ng·h/mL
Cmax [4]: 397 ng/mL
Maximum plasma concentration of reference compound converted after administration of compound no. 100 in comparison to the administration of ref. compound [5]: ~3.6 times
% Inhibition of AGE-BSA Formation [6]: ++ (++ indicate 11-20%)
Compound: CS(=O)(=O)NNC(=O)C1=CN(CC(=O)c2cccs2)C=CC1 [Compound no. 100, N′-(methylsulfonyl)-1-[2-oxo-2-(thiophen-2-yl)ethyl]-1,4-dihydropyridine-3-carbohydrazide]
% Inhibition of AGE-LDL-formation [7]: ++++ (++++ indicate >30%)

Absorption [8]: absorbed rapidly
AUC(0-8 hr) [8, 12]: 203.6 ng·h/mL
Cmax [8, 12]: 100.5 ng/mL
AUC(0-24 hr) [9]: 2477.0 ng·h/mL
Cmax [9]: 258.4 ng/mL
Compound: CS(=O)(=O)NNC(=O)c1ccc[n+](CC(=O)c2cccs2)c1.[Cl-] [Reference compound-T, 3-((2-(methylsulfonyl)hydrazino)carbonyl)-1-(2-oxo-2-thienylethyl)pyridinium chloride]

Compound: CS(=O)(=O)NNC(=O)c1ccc[n+](CC(=O)c2cccs2)c1.[Br-] [TRC4149]
Effect on endothelial and cardiac function [10]: preserved endothelial and cardiac function

Compound: CS(=O)(=O)NNC(=O)c1ccc[n+](CC(=O)c2cccs2)c1.[Cl-] [TRC4186]
Effect on diabetic cardiomyopathy and nephropathy [11]: preserved cardiac function and reduced the severity of renal dysfunction

% Inhibition of AGE-BSA Formation [6]: + (+ indicate 0-10%)
Compound: CS(=O)(=O)NNC(=O)C1C=CCN(CC(=O)c2cccs2)C1 (stereo not drawn) [compound 186, N′-(methylsulfonyl)-1-[2-oxo-2-(thiophen-2-yl)ethyl]-1,2,3,6-tetrahydropyridine-3-carbohydrazide]
% Inhibition of AGE-LDL-formation [7]: ++++ (++++ indicate >30%)
